Tested on: production of TNF by monocytes activated with bacterial lipopolysaccharide (LPS)
Test: Lipopolysaccharide-activated monocyte TNF production assay
Type: cell-based
Details: Homo sapiens; whole blood monocyte assay (LPS induced TNF release)
Method in brief: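 Adherent human PBMC-derived monocytes preincubated 60 min with nine two-fold compound dilutions, then stimulated with E. coli K532 LPS (30 ng/mL in the added medium) for 4 h at 37 °C. Supernatant TNF measured by sandwich ELISA; IC50 is the compound concentration halving TNF production, from second-order polynomial fits.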

Compound | IC50 [µM]
Cc1ccc(C(=O)NC2CC2)cc1-c1ccc2c(NCCN(C)C)nncc2c1 [Example 183, N-cyclopropyl-3-(1-{[2-(dimethylamino)ethyl]amino}phthalazin-6-yl)-4-methylbenzamide] | ≤ 5
Cc1ccc(C(N)=O)cc1-c1ccc2c(N3CCOC[C@@H]3C)nncc2c1 [Example 184, 4-methyl-3-{1-[(3S)-3-methylmorpholin-4-yl]phthalazin-6-yl}benzamide] | ≤ 5
Cc1ccc(C(N)=O)cc1-c1ccc2c(N[C@H](C)CO)nncc2c1 [Example 185, 3-(1-{[(1R)-2-hydroxy-1-methylethyl]amino}phthalazin-6-yl)-4-methylbenzamide] | ≤ 5
CCN(CC)CCNc1nncc2cc(-c3cc(C(=O)NC4CC4)ccc3C)ccc12 [Example 186, N-cyclopropyl-3-(1-{[2-(diethylamino)ethyl]amino}phthalazin-6-yl)-4-methylbenzamide] | ≤ 5
Cc1ccc(C(=O)NC2CC2)cc1-c1ccc2c(N(C)C)nncc2c1 [Example 187, N-cyclopropyl-3-[1-(dimethylamino)phthalazin-6-yl]-4-methylbenzamide] | ≤ 5
COCCN(C)c1nncc2cc(-c3cc(C(=O)NC4CC4)ccc3C)ccc12 [Example 188, N-cyclopropyl-3-{1-[(2-methoxyethyl)(methyl)amino]phthalazin-6-yl}-4-methylbenzamide] | ≤ 5
COCCNc1nncc2cc(-c3cc(C(N)=O)ccc3C)ccc12 [Example 189, 3-{1-[(2-methoxyethyl)amino]phthalazin-6-yl}-4-methylbenzamide] | ≤ 5
COC[C@H](C)Nc1nncc2cc(-c3cc(C(N)=O)ccc3C)ccc12 [Example 190, 3-(1-{[(1S)-2-methoxy-1-methylethyl]amino}phthalazin-6-yl)-4-methylbenzamide] | ≤ 5
Cc1ccc(C(=O)NC2CC2)cc1-c1ccc2c(N[C@@H](C)C(=O)OC(C)(C)C)nncc2c1 [Example 191, tert-butyl N-(6-{5-[(cyclopropylamino)carbonyl]-2-methylphenyl}phthalazin-1-yl)-L-alaninate] | ≤ 5
COC[C@H](C)Nc1nncc2cc(-c3cc(C(=O)NC4CC4)ccc3C)ccc12 [Example 192, N-cyclopropyl-3-(1-{[(1S)-2-methoxy-1-methylethyl]amino}phthalazin-6-yl)-4-methylbenzamide] | ≤ 5
Cc1ccc(C(=O)NC2CC2)cc1-c1ccc2c(N[C@H](C)c3ccccc3)nncc2c1 [Example 193, N-cyclopropyl-4-methyl-3-(1-{[(1R)-1-phenylethyl]amino}phthalazin-6-yl)benzamide] | ≤ 5
COCCNc1nncc2cc(-c3cc(C(=O)NC4CC4)ccc3C)ccc12 [Example 194, N-cyclopropyl-3-{1-[(2-methoxyethyl)amino]phthalazin-6-yl}-4-methylbenzamide] | ≤ 5
Cc1ccc(S(C)(=O)=O)cc1-c1ccc2c(N3CCOCC3)nncc2c1 [Example 195, 6-[2-methyl-5-(methylsulfonyl)phenyl]-1-morpholin-4-ylphthalazine] | ≤ 5
COc1ncncc1-c1nncc2cc(-c3cc(C(N)=O)ccc3C)ccc12 [Example 196, 3-[1-(4-methoxypyrimidin-5-yl)phthalazin-6-yl]-4-methylbenzamide] | ≤ 5
COc1nc(N(C)C)ncc1-c1nncc2cc(-c3cc(C(=O)NC4CC4)ccc3C)ccc12 [Example 197, N-cyclopropyl-3-{1-[2-(dimethylamino)-4-methoxypyrimidin-5-yl]phthalazin-6-yl}-4-methylbenzamide] | ≤ 5
COc1cccc(-c2nncc3cc(-c4cc(C(N)=O)ccc4C)ccc23)c1OC [Example 198, 3-[1-(2,3-dimethoxyphenyl)phthalazin-6-yl]-4-methylbenzamide] | ≤ 5
Cc1ccc(C(N)=O)cc1-c1ccc2c(-c3ccc(C(F)(F)F)cc3Cl)nncc2c1 [Example 199, 3-{1-[2-chloro-4-(trifluoromethyl)phenyl]phthalazin-6-yl}-4-methylbenzamide] | ≤ 5
COc1c(C)cccc1-c1nncc2cc(-c3cc(C(=O)NC4CC4)ccc3C)ccc12 [Example 201, N-cyclopropyl-3-[1-(2-methoxy-3-methylphenyl)phthalazin-6-yl]-4-methylbenzamide] | ≤ 5
COc1ccc(-c2nncc3cc(-c4cc(C(N)=O)ccc4C)ccc23)c(C)c1 [Example 202, 3-[1-(4-methoxy-2-methylphenyl)phthalazin-6-yl]-4-methylbenzamide] | ≤ 5
Cc1ccc(C(N)=O)cc1-c1ccc2c(-c3ccc(CN4CCOCC4)cc3)nncc2c1 [Example 203, 4-methyl-3-{1-[4-(morpholin-4-ylmethyl)phenyl]phthalazin-6-yl}benzamide] | ≤ 5
COc1c(C)cccc1-c1nncc2cc(-c3cc(C(N)=O)ccc3C)ccc12 [Example 204, 3-[1-(2-methoxy-3-methylphenyl)phthalazin-6-yl]-4-methylbenzamide] | ≤ 5

Compound | IC50 [µM]
Cc1ccc(C(=O)NC2CC2)cc1-c1ccc2c(-c3ccc(C(C)(C)C(=O)O)cc3)nncc2c1 [Example 205, 2-[4-(6-{5-[(cyclopropylamino)carbonyl]-2-methylphenyl}phthalazin-1-yl)phenyl]-2-methylpropanoic acid] | ≤ 5
CNc1ccc(-c2nncc3cc(-c4cc(C(=O)NC5CC5)ccc4C)ccc23)c(OC)n1 [Example 206, N-cyclopropyl-3-{1-[2-methoxy-6-(methylamino)pyridin-3-yl]phthalazin-6-yl}-4-methylbenzamide] | ≤ 5
COc1ccc(-c2nncc3cc(-c4cc(C(=O)NC5CC5)ccc4C)ccc23)c(C)n1 [Example 207, N-cyclopropyl-3-[1-(6-methoxy-2-methylpyridin-3-yl)phthalazin-6-yl]-4-methylbenzamide] | ≤ 5
Cc1ccc(C(=O)NC2CC2)cc1-c1ccc2c(-c3ccc(-c4ccc(Cl)cc4)cc3)nncc2c1 [Example 208, 3-[1-(4′-chloro-1,1′-biphenyl-4-yl)phthalazin-6-yl]-N-cyclopropyl-4-methylbenzamide] | ≤ 5
Cc1ccc(C(=O)NC2CC2)cc1-c1ccc2c(-c3ccc(Cl)cc3)nncc2c1 [Example 209, 3-[1-(4-chlorophenyl)phthalazin-6-yl]-N-cyclopropyl-4-methylbenzamide] | ≤ 5
Cc1ccc(C(=O)NC2CC2)cc1-c1ccc2c(-c3ccc(Cl)cc3C(F)(F)F)nncc2c1 [Example 210, 3-{1-[4-chloro-2-(trifluoromethyl)phenyl]phthalazin-6-yl}-N-cyclopropyl-4-methylbenzamide] | ≤ 5
Cc1ccc(-c2nncc3cc(-c4cc(C(N)=O)ccc4C)ccc23)c(Cl)n1 [Example 211, 3-[1-(2-chloro-6-methylpyridin-3-yl)phthalazin-6-yl]-4-methylbenzamide] | ≤ 5
Cc1ccc(-c2nncc3cc(-c4cc(C(=O)NC5CC5)ccc4C)ccc23)c(Cl)n1 [Example 212, 3-[1-(2-chloro-6-methylpyridin-3-yl)phthalazin-6-yl]-N-cyclopropyl-4-methylbenzamide] | ≤ 5
COc1cc(F)ccc1-c1nncc2cc(-c3cc(C(N)=O)ccc3C)ccc12 [Example 213, 3-[1-(4-fluoro-2-methoxyphenyl)phthalazin-6-yl]-4-methylbenzamide] | ≤ 5
Cc1ccc(C(N)=O)cc1-c1ccc2c(-c3ccc(S(C)(=O)=O)cc3)nncc2c1 [Example 214, 4-methyl-3-{1-[4-(methylsulfonyl)phenyl]phthalazin-6-yl}benzamide] | ≤ 5
Cc1ccc(C(N)=O)cc1-c1ccc2c(-c3cncnc3)nncc2c1 [Example 215, 4-methyl-3-(1-pyrimidin-5-ylphthalazin-6-yl)benzamide] | ≤ 5
Cc1ccc(C(N)=O)cc1-c1ccc2c(-c3cc4ccccc4[nH]3)nncc2c1 [Example 216, 3-[1-(1H-indol-2-yl)phthalazin-6-yl]-4-methylbenzamide] | ≤ 5
Cc1ccc(C(N)=O)cc1-c1ccc2c(-c3ccc(F)cc3C)nncc2c1 [Example 217, 3-[1-(4-fluoro-2-methylphenyl)phthalazin-6-yl]-4-methylbenzamide] | ≤ 5
Cc1ccc(C(=O)NC2CC2)cc1-c1ccc2c(-c3ccc(S(N)(=O)=O)cc3C)nncc2c1 [Example 218, 3-{1-[4-(aminosulfonyl)-2-methylphenyl]phthalazin-6-yl}-N-cyclopropyl-4-methylbenzamide] | ≤ 5
Cc1ccc(C(=O)NC2CC2)cc1-c1ccc2c(-c3ccc(C(F)(F)F)cc3Cl)nncc2c1 [Example 219, 3-{1-[2-chloro-4-(trifluoromethyl)phenyl]phthalazin-6-yl}-N-cyclopropyl-4-methylbenzamide] | ≤ 5
Cc1ccc(C(N)=O)cc1-c1ccc2c(-c3ccccc3C(F)(F)F)nncc2c1 [Example 220, 4-methyl-3-{1-[2-(trifluoromethyl)phenyl]phthalazin-6-yl}benzamide] | ≤ 5
Cc1ccc(-c2nncc3cc(-c4cc(C(N)=O)ccc4C)ccc23)c(Cl)c1 [Example 221, 3-[1-(2-chloro-4-methylphenyl)phthalazin-6-yl]-4-methylbenzamide] | ≤ 5
Cc1ccc(C(N)=O)cc1-c1ccc2c(-c3ccc(F)cc3Cl)nncc2c1 [Example 222, 3-[1-(2-chloro-4-fluorophenyl)phthalazin-6-yl]-4-methylbenzamide] | ≤ 5
Cc1ccc(C(N)=O)cc1-c1ccc2c(-c3ccc(Cl)cc3Cl)nncc2c1 [Example 223, 3-[1-(2,4-dichlorophenyl)phthalazin-6-yl]-4-methylbenzamide] | ≤ 5
COc1cc(Cl)ccc1-c1nncc2cc(-c3cc(C(=O)NC4CC4)ccc3C)ccc12 [Example 224, 3-[1-(4-chloro-2-methoxyphenyl)phthalazin-6-yl]-N-cyclopropyl-4-methylbenzamide] | ≤ 5
COc1ncc(-c2nncc3cc(-c4cc(C(N)=O)ccc4C)ccc23)c(OC)n1 [Example 225, 3-[1-(2,4-dimethoxypyrimidin-5-yl)phthalazin-6-yl]-4-methylbenzamide] | ≤ 5

— patent US7759337B2, “Phthalazine compounds and methods of use” (Amgen Inc., priority 2005, dated 2010)
